{
  "source": "paper PMC5675618",
  "about": "“Identification and validation of FGFR2 peptide for detection of early Barrett's neoplasia” (Oncotarget, 2017)",
  "key": {"[1]": {"test": "Fluorescence spectra of Cy5.5-labeled peptides", "assay_type": "physicochemical", "conditions": "10 μM in PBS, excitation λex = 671 nm", "text": "We synthesized the 12 amino acid sequence SRRPASFRTARE (black) and attached the fluorophore Cy5.5 (red) via a GGGSK linker (blue) on the C-terminus, hereafter SRR^*-Cy5.5, Figure 1A. Cy5.5 was chosen for photostability and high quantum yield in the near-infrared (NIR) spectrum. We used a linker to prevent steric hindrance of the peptide by the dye. We then used a structural model (1EV2), [24] […] This domain is the same in either isoform FGFR2IIIb or FGFR2IIIc. We also used this model to develop a scrambled sequence SPSRERTFRARA for a control, Figure 1C. This peptide was also labeled with Cy5.5 via a GGGSK linker, hereafter SPS^*-Cy5.5. For SPS^*-Cy5.5, we calculated Et = −277.37. […] We purified SRR^*-Cy5.5 and […] to >97% on HPLC, and measured an experimental mass-to-charge (m/z) ratio on mass spectrometry of 2385.31 for both peptides that agreed with the expected value, Supplementary Figure 3.\nFigure 1 Peptide specific for FGFR2 Chemical structure is shown for 12 amino acid (aa) peptide sequence (A) SRRPASFRTARE (SRR^*) found to be specific for FGFR2, and (B) scrambled peptide SPSRERTFRARA (SPS^*) used for control. A Cy5.5 fluorophore (red) is attached via a GGGSK linker (blue) to prevent steric hindrance."}, "QhTERT wild-type cells": {"tested_on": "QhTERT wild-type cells", "test": "Confocal fluorescence microscopy, binding to wild-type QhTERT cells", "assay_type": "cell-based, human", "conditions": "1 μM peptide, 10 min at RT, 63X", "text": "All human esophageal specimens were obtained with written, informed patient consent per approval and guidelines of the University of Michigan Institutional Review Board (IRB). Human non-dysplastic Barrett's esophagus (BE) cells immortalized with hTert (QhTERT) were obtained from the American Type Culture Collection (ATCC) and cultured in keratinocyte-serum free medium containing bovine pituitary extract and human recombinant EGF (ThermoFisher #17005042). QhTERT cells with stable expression of FGFR2b or FGFR2c were provided (DGB). We cultured these cells with keratinocyte-serum free medium containing bovine pituitary extract and human recombinant EGF (ThermoFisher #17005042) and added 1 μg/mL of puromycin-dihydrochloride (Invitrogen #A11138-03). All cells were cultured at 37°C in 5% CO2, and were passaged using 0.25% EDTA containing trypsin (Mediatech Inc). A hemocytometer was used to determine cell number. […]\n~10^3 QhTERT/wt, QhTERT/FGFR2b, and QhTERT/FGFR2c cells were grown on cover glass to ~80% confluence. […] Confocal fluorescence images were collected with Cy5.5 and DAPI filters (Leica Inverted SP5X 2-Photon FLIM confocal microscopes) using a 63X oil-immersion objective. Fluorescence intensities from 3 cells in each of 3 independent images were quantified using custom Matlab (Mathworks) software."}, "[2]": {"tested_on": "QhTERT cells that express FGFR2c", "test": "Apparent association time constant by flow cytometry", "assay_type": "binding, human", "conditions": "5 μM, RT, 0 to 30 min", "procedure": "We measured the apparent association time constant of the peptide to QhTERT/FGFR2c cells to assess binding onset. Cells were grown to ~80% confluence in 10 cm dishes, and detached with PBS-based cell dissociation buffer (Invitrogen). Cells (~10^5 were incubated with 5 μM SRR-Cy5.5 at RT for various time intervals ranging from 0 to 30 min. The cells were centrifuged, and washed with cold PBS. Flow cytometry analysis was performed as described above, and the median fluorescence intensity (y) were measured on flow cytometry at different time points (t) using Flowjo software. The rate constant k was calculated by fitting the data to a first order kinetics model, y(t) = Imax[1-exp^(-kt)], where Imax = maximum value using Prism 5.0 software (GraphPad Inc)."}, "[3]": {"tested_on": "sections of human esophageal squamous cell cancer (SCC)", "test": "Confocal microscopy of staining of human esophageal squamous cell cancer (SCC) ex vivo", "text": "We observed good co-localization of peptide and antibody binding on merged images, Supplementary Figure 5C. Representative histology (H&E) for SCC is shown, Supplementary Figure 5D. […] Representative histology (H&E) for normal stomach is shown, Supplementary Figure 5H."}, "[4]": {"tested_on": "sections of human gastric cancer", "test": "Confocal microscopy of staining of human gastric cancer ex vivo", "text": "We observed good co-localization of peptide and antibody binding on merged images, Supplementary Figure 6C. Representative histology (H&E) for gastric cancer is shown, Supplementary Figure 6D. […] Representative histology (H&E) for normal stomach is shown, Supplementary Figure 6H."}},
  "data": [
    {"sequence": "SRRPASFRTARE [SRR^*-Cy5.5]", "values": [
      {"measurement": "peak emission λem", "setting": "[1]", "result": 710, "unit": "nm"},
      {"measurement": "cell surface fluorescence signal / binding", "setting": "QhTERT wild-type cells", "result": "minimal signal"},
      {"measurement": "apparent association time constant k", "setting": "[2]; median fluorescence intensity by flow cytometry, first order kinetics, representative of 3 independent experiments", "result": 0.16, "unit": "min⁻¹"},
      {"measurement": "time scale for onset of binding", "setting": "[2]; from k", "result": "~ 6.2 min"},
      {"measurement": "mean fluorescence intensity, SCC versus normal, SRR*-Cy5.5", "setting": "[3]; P=5×10-21, paired two-sided t-test, 3 boxes of 30×30 μm2", "result": "significantly greater mean fluorescence intensity"},
      {"measurement": "fluorescence intensity / binding, esophageal SCC", "setting": "[3]; SCC sections ex vivo, n = 35 patients", "result": "strong fluorescence intensity"},
      {"measurement": "staining, normal human esophagus", "setting": "[3]; normal esophagus, comparison", "result": "minimal staining"},
      {"measurement": "mean fluorescence intensity, gastric cancer versus normal, SRR*-Cy5.5", "setting": "[4]; P=7×10-17, paired two-sided t-test, 3 boxes of 30×30 μm2", "result": "significantly greater mean fluorescence intensity"},
      {"measurement": "fluorescence intensity / binding, gastric cancer", "setting": "[4]; gastric cancer sections ex vivo, n = 33 patients", "result": "strong fluorescence intensity"},
      {"measurement": "staining, normal human stomach", "setting": "[4]; normal stomach, comparison", "result": "minimal staining"}
    ]}
  ]
}
